Reference: US9409898B2, “Substituted pyrazole compounds as CRAC modulators” (LUPIN LIMITED, priority 2012, dated 2016)

Test system: IL-2 secretion
Assay: Inhibition of IL-2 secretion in PHA-stimulated Jurkat T cells (ELISA)
Format: cell-based
Conditions: Homo sapiens, PHA stimulation, 20 to 24 hours, IL-2 by ELISA
Method: The CRAC channel modulatory activity of the compounds were thus evaluated by measuring the secretion of IL-2 by antigen stimulated T-cells in vitro. Alternatively, such activity can also be evaluated by assay methods known to one skilled in the art.
Inhibition of IL-2 secretion: Jurkat T cells were seeded at a density of 0.5 to 1 million cells per well in RPMI medium. Test compounds from this invention were added to the cells at different concentrations. This was followed by the addition of PHA, a T cell mitogen after 10 minutes. The cells were then incubated for 20 to 24 hours in a CO2 incubator at 37° C. After incubation with the compounds, cells were centrifuged, the supernatant was collected and processed for ELISA to quantitate the amount of IL-2 secreted. A commercial ELISA kit (R&D Systems, Inc. Minneapolis, Minn., USA) was used to estimate the IL-2 concentrations. Amount of IL-2 secreted by cells stimulated with PHA was considered as a 100% maximal signal and the decrease in amount of IL-2 secreted by cells treated with the test compounds was expressed as percent inhibition of the maximal signal. The dose response data was analyzed using 4-parametric sigmoidal dose response (variable slope) curve—fit.

| IC50 | SMILES |
| --- | --- |
| 100 to 1000 nM | Cn1c(-c2cc(C(F)(F)F)n(-c3ccc(NC(=O)c4c(F)cccc4F)cn3)n2)noc1=O [Example 19, 2,6-Difluoro-N-(6-(3-(4-methyl-5-oxo-4,5-dihydro-1,2,4-oxadiazol-3-yl)-5-(trifluoromethyl)-1H-pyrazol-1-yl)pyridin-3-yl)benzamide] |
| < 100 nM | Cc1cccc(C(=O)Nc2ccc(-n3nc(-c4nn(C)c(=O)o4)cc3C(F)(F)F)cn2)c1C [Example 46, 2,3-Dimethyl-N-(5-(3-(4-methyl-5-oxo-4,5-dihydro-1,3,4-oxadiazol-2-yl)-5-(trifluoromethyl)-1H-pyrazol-1-yl)pyridin-2-yl)benzamide] |
| < 100 nM | Cn1nc(-c2cc(C(F)(F)F)n(-c3ccc(C(=O)Nc4c(F)cccc4Cl)cn3)n2)oc1=O [Example 55, N-(2-Chloro-6-fluorophenyl)-6-(3-(4-methyl-5-oxo-4,5-dihydro-1,3,4-oxadiazol-2-yl)-5-(trifluoromethyl)-1H-pyrazol-1-yl)nicotinamide] |
